{"source": "ChEMBL document CHEMBL3861981", "about": "(J Med Chem, 2016)", "key": {"Hepatitis C virus [1]": {"tested_on": "Hepatitis C virus", "assay": "Antiviral activity against HCV genotype 1b Con1 expressing NS3 protease infected in human Huh7.5 cells assessed as reduction in viral RNA replication by luciferase reporter gene assay", "assay_type": "functional, cell-based, Hepacivirus hominis", "settings": "genotype 1b Con1, Huh-7"}, "[2]": {"assay": "Half life in human liver microsomes", "assay_type": "ADME"}, "[3]": {"assay": "Inhibition of recombinant full length HCV genotype 3a S52 NS3/4A protease preincubated for 30 mins followed by substrate addition measured by FRET assay", "parameters": "species or system Hepatitis C virus S52"}, "[4]": {"assay": "Inhibition of recombinant full length HCV genotype 2b HC-J8 NS3/4A protease preincubated for 30 mins followed by substrate addition measured by FRET assay", "parameters": "species or system Hepatitis C virus subtype 2b"}, "[5]": {"assay": "Half life in cannulated Sprague-Dawley rat plasma at 5 mg/kg, iv administered as 10 mins infusion by LC/MS/MS analysis", "assay_type": "ADME, organism-based"}, "[6]": {"assay": "AUC in cannulated Sprague-Dawley rat plasma at 15 mg/kg administered via oral gavage measured up to 24 hrs post dose by LC/MS/MS analysis", "assay_type": "ADME, organism-based", "parameters": "dose 15 mg/kg, time < 24 hr, route oral"}, "[7]": {"assay": "Drug uptake in cannulated Sprague-Dawley rat liver at 15 mg/kg administered via oral gavage measured at 24 hrs post dose by LC/MS/MS analysis", "assay_type": "ADME, organism-based", "settings": "read-out: Drug uptake"}, "[8]": {"assay": "Half life in Beagle dog plasma at 1 mg/kg, iv administered as 5 mins infusion by LC/MS/MS analysis", "assay_type": "ADME, organism-based, Canis lupus familiaris"}, "[9]": {"assay": "Oral bioavailability in Beagle dog plasma at 3 mg/kg administered via gavage measured up to 24 hrs post dose by LC/MS/MS analysis", "assay_type": "ADME, organism-based, Canis lupus familiaris", "settings": "beagle, plasma"}, "[10]": {"assay": "Cardiotoxicity in rabbit heart assessed as change in heart rate at 10 uM perfused for 20 mins measured for 1 min by electrophysiology method relative to control", "assay_type": "toxicity, tissue-based, Oryctolagus cuniculus"}, "[11]": {"assay": "Clearance in cynomolgus monkey plasma at 3 mg/kg, iv administered as 5 mins infusion measured up to 24 hrs post dose by LC/MS/MS analysis", "assay_type": "ADME, organism-based, Macaca fascicularis"}, "[12]": {"assay": "Oral bioavailability in cynomolgus monkey plasma at 10 mg/kg administered via gavage measured up to 24 hrs post dose by LC/MS/MS analysis", "assay_type": "ADME, organism-based, Macaca fascicularis", "settings": "plasma"}, "[13]": {"assay": "AUC in cynomolgus monkey plasma at 10 mg/kg administered via oral gavage measured up to 24 hrs post dose by LC/MS/MS analysis", "assay_type": "ADME, organism-based, Macaca fascicularis", "parameters": "dose 10 mg/kg, time < 24 hr, route oral", "settings": "plasma"}, "[14]": {"assay": "Cardiotoxicity in rabbit heart assessed as change in sinoatrial node recovery time at 10 uM perfused for 20 mins measured for 1 min by electrophysiology method relative to control", "assay_type": "toxicity, tissue-based, Oryctolagus cuniculus"}, "[15]": {"assay": "Cytotoxicity against human HepG2 cells assessed as decrease in cell viability"}, "[16]": {"assay": "Cytotoxicity against human HEK293T cells assessed as decrease in cell viability"}, "[17]": {"assay": "Cytotoxicity against human HeLa cells assessed as decrease in cell viability"}, "[18]": {"assay": "Cytotoxicity against human MRC5 cells assessed as decrease in cell viability"}, "Salmonella typhimurium": {"tested_on": "Salmonella typhimurium", "assay": "Genotoxicity in Salmonella typhimurium in presence of S9 fraction by Ames test", "assay_type": "toxicity, organism-based", "settings": "salmonella enterica subsp. enterica serovar typhimurium"}, "Rattus norvegicus": {"tested_on": "Rattus norvegicus", "assay": "Toxicity in rat at 30 to 300 mg/kg administered as single dose", "assay_type": "organism-based", "settings": "in vivo"}, "Homo sapiens": {"species": "Homo sapiens", "assay": "Inhibition of sodium channel (unknown origin) at 10 uM at 4 Hz by patch clamp assay"}, "[19]": {"assay": "Toxicity in cynomolgus monkey assessed as gastrointestinal irritation at 10 mg/kg, po administered through gavage", "assay_type": "organism-based, Macaca fascicularis", "settings": "in vivo"}, "[20]": {"assay": "Cardiotoxicity in anesthetized rabbit assessed as effect on PR interval at 30 mg/kg, iv administered as 10 mins infusion measured up to 60 mins post dose by electrophysiology assay", "assay_type": "toxicity, organism-based, Oryctolagus cuniculus", "settings": "in vivo"}, "[21]": {"assay": "Cardiotoxicity in anesthetized rabbit assessed as effect on QRS interval at 30 mg/kg, iv administered as 10 mins infusion measured up to 60 mins post dose by electrophysiology assay", "assay_type": "toxicity, organism-based, Oryctolagus cuniculus", "settings": "in vivo"}, "[22]": {"assay": "Cardiotoxicity in anesthetized rabbit assessed as prolongation of QTcf interval at 30 mg/kg, iv administered as 10 mins infusion by electrophysiology assay", "assay_type": "toxicity, organism-based, Oryctolagus cuniculus", "settings": "in vivo"}, "[23]": {"assay": "Cardiotoxicity in dog assessed as prolongation of QTcv interval at 30 to 100 mg/kg administered as single dose by electrophysiology assay", "assay_type": "toxicity, organism-based, Canis lupus familiaris", "settings": "in vivo"}, "[24]": {"assay": "Cardiotoxicity in dog assessed as prolongation of QTcf interval at 30 to 100 mg/kg administered as single dose by electrophysiology assay", "assay_type": "toxicity, organism-based, Canis lupus familiaris", "settings": "in vivo"}, "[25]": {"assay": "Cardiotoxicity in dog assessed as effect on QRS interval at 30 to 100 mg/kg administered as single dose by electrophysiology assay", "assay_type": "toxicity, organism-based, Canis lupus familiaris", "settings": "in vivo"}, "[26]": {"assay": "Cardiotoxicity in dog assessed as effect on PR interval at 30 to 100 mg/kg administered as single dose by electrophysiology assay", "assay_type": "toxicity, organism-based, Canis lupus familiaris", "settings": "in vivo"}, "[27]": {"assay": "Cardiotoxicity in dog assessed as effect on heart rate at 30 to 100 mg/kg administered as single dose by electrophysiology assay", "assay_type": "toxicity, organism-based, Canis lupus familiaris", "settings": "in vivo"}, "[28]": {"assay": "Cardiotoxicity in dog assessed as effect on sinoatrial node recovery time at 30 to 100 mg/kg administered as single dose by electrophysiology assay", "assay_type": "toxicity, organism-based, Canis lupus familiaris", "settings": "in vivo"}, "[29]": {"assay": "Inhibition of recombinant full length HCV genotype 1a H77 NS3/4A protease preincubated for 30 mins followed by substrate addition measured by FRET assay", "parameters": "species or system Hepatitis C virus (isolate H77)"}, "[30]": {"assay": "Inhibition of recombinant full length HCV genotype 4a ED43 NS3/4A protease preincubated for 30 mins followed by substrate addition measured by FRET assay", "parameters": "species or system Hepatitis C virus ED43"}, "[31]": {"assay": "Inhibition of recombinant full length HCV genotype 5a SA13 NS3/4A protease preincubated for 30 mins followed by substrate addition measured by FRET assay", "parameters": "species or system Hepatitis C virus SA13"}, "[32]": {"assay": "Inhibition of recombinant full length HCV genotype 6a HK-6A NS3/4A protease preincubated for 30 mins followed by substrate addition measured by FRET assay", "parameters": "species or system Hepatitis C virus subtype 6a"}, "[33]": {"assay": "Inhibition of recombinant full length HCV genotype 4a ED43 NS3 protease in genotype 1b con1 replicon cells by luciferase reporter gene assay", "settings": "Hepatitis C virus"}, "[34]": {"assay": "Inhibition of recombinant full length HCV genotype 3a S52 NS3 protease in genotype 2a replicon cells by luciferase reporter gene assay", "assay_type": "cell-based", "settings": "Hepatitis C virus"}, "Hepatitis C virus [35]": {"tested_on": "Hepatitis C virus", "assay": "Antiviral activity against HCV genotype 1a H77 in HCV replicon cells assessed as reduction in viral RNA replication by luciferase reporter gene assay"}, "Hepatitis C virus [36]": {"tested_on": "Hepatitis C virus", "assay": "Antiviral activity against HCV genotype 2a JHF-1 in HCV replicon cells assessed as reduction in viral RNA replication by luciferase reporter gene assay", "settings": "genotype 2a JFH-1"}, "Genome polyprotein": {"molecular_target": "Genome polyprotein (GB virus-B, UniProt Q69422)", "sequence (Q69422 941-1564 limits assumed)": "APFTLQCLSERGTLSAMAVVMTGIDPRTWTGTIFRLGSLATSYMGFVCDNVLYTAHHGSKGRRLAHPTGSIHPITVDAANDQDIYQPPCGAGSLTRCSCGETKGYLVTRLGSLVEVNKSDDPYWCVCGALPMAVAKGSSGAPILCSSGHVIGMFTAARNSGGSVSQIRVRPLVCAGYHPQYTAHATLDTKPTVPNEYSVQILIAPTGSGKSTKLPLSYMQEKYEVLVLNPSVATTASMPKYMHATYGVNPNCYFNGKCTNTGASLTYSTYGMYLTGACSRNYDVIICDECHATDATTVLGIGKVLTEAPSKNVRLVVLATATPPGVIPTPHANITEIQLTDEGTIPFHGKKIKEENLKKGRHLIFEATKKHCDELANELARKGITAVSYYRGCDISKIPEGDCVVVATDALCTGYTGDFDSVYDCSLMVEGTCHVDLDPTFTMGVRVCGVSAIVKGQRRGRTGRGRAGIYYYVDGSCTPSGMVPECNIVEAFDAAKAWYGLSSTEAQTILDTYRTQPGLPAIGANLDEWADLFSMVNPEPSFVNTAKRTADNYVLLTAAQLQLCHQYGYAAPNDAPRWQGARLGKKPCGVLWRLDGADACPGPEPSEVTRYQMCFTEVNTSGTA", "assay": "Inhibition of GBV-B NS3 protease"}, "Neutrophil elastase": {"molecular_target": "T1, Neutrophil elastase (Homo sapiens, UniProt P08246)", "T1 sequence (P08246 whole entry)": "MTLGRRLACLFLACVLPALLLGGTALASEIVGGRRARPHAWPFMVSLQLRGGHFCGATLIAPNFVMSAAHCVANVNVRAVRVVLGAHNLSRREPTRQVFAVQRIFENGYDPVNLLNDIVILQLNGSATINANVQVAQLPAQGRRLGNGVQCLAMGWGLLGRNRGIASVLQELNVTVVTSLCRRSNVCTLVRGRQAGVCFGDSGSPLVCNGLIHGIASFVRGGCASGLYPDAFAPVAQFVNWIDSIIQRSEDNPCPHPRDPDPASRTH", "assay": "Inhibition of human leukocyte elastase"}, "[37]": {"assay": "Drug uptake in rabbit heart atrium measured after 60 mins", "assay_type": "ADME, Oryctolagus cuniculus, Cardiac atrium", "settings": "read-out: Drug uptake"}}, "data": [{"smiles": "COc1cnc(O[C@@H]2C[C@@H](C(=O)N[C@]3(C(=O)NS(=O)(=O)C4CC4)C[C@H]3C3CC3)N(C(=O)[C@@H](NC(=O)O[C@H](C)C(F)(F)F)C3CCCCC3)C2)c2cc(Cl)ccc12", "values": [{"measurement": "EC50", "setting": "Hepatitis C virus [1]", "value": 4.5, "unit": "nM"}, {"measurement": "half-life", "setting": "[2]", "value": 1.08, "unit": "h"}, {"measurement": "IC50", "setting": "[3]", "value": 1400, "unit": "nM"}, {"measurement": "IC50", "setting": "[4]", "value": 220, "unit": "nM"}, {"measurement": "half-life", "setting": "[5]", "value": 8.6, "unit": "h"}, {"measurement": "AUC at 24 h", "setting": "[6]", "value": 21.1, "unit": "µM·h"}, {"measurement": "concentration at 24 h", "setting": "[7]", "value": 51, "unit": "µM"}, {"measurement": "half-life", "setting": "[8]", "value": 5.1, "unit": "h"}, {"measurement": "bioavailability", "setting": "[9]", "value": 57.5, "unit": "%"}, {"measurement": "Activity", "setting": "[10]", "value": -11, "unit": "%"}, {"measurement": "clearance", "setting": "[11]", "value": 9.4, "unit": "mL/min/kg"}, {"measurement": "bioavailability", "setting": "[12]", "value": 15.4, "unit": "%"}, {"measurement": "AUC at 24 h", "setting": "[13]", "value": 4.4, "unit": "µM·h"}, {"measurement": "Activity", "setting": "[14]", "value": -3, "unit": "%"}, {"measurement": "CC50", "setting": "[15]", "value": "8000 to 14000", "unit": "nM"}, {"measurement": "CC50", "setting": "[16]", "value": "8000 to 14000", "unit": "nM"}, {"measurement": "CC50", "setting": "[17]", "value": "8000 to 14000", "unit": "nM"}, {"measurement": "CC50", "setting": "[18]", "value": "8000 to 14000", "unit": "nM"}, {"measurement": "Activity", "setting": "Salmonella typhimurium", "value": "Non-Toxic"}, {"measurement": "Activity", "setting": "Rattus norvegicus", "value": "Non-Toxic"}, {"measurement": "inhibition", "setting": "Homo sapiens", "value": 46.4, "unit": "%"}, {"measurement": "Activity", "setting": "[19]", "value": "Non-Toxic"}, {"measurement": "Activity", "setting": "[20]", "value": "Non-Toxic"}, {"measurement": "Activity", "setting": "[21]", "value": "Non-Toxic"}, {"measurement": "Activity", "setting": "[22]", "value": "Toxic"}, {"measurement": "Activity", "setting": "[23]", "value": "Non-Toxic"}, {"measurement": "Activity", "setting": "[24]", "value": "Non-Toxic"}, {"measurement": "Activity", "setting": "[25]", "value": "Non-Toxic"}, {"measurement": "Activity", "setting": "[26]", "value": "Non-Toxic"}, {"measurement": "Activity", "setting": "[27]", "value": "Non-Toxic"}, {"measurement": "Activity", "setting": "[28]", "value": "Non-Toxic"}, {"measurement": "IC50", "setting": "[29]", "value": 1.5, "unit": "nM"}, {"measurement": "IC50", "setting": "[30]", "value": 6, "unit": "nM"}, {"measurement": "IC50", "setting": "[31]", "value": 4.1, "unit": "nM"}, {"measurement": "IC50", "setting": "[32]", "value": 3.4, "unit": "nM"}, {"measurement": "EC50", "setting": "[33]", "value": 2.8, "unit": "nM"}, {"measurement": "EC50", "setting": "[34]", "value": 1650, "unit": "nM"}, {"measurement": "EC50", "setting": "Hepatitis C virus [35]", "value": 4.5, "unit": "nM"}, {"measurement": "EC50", "setting": "Hepatitis C virus [36]", "value": 136, "unit": "nM"}, {"measurement": "IC50", "setting": "Genome polyprotein", "value": "> 25000", "unit": "nM"}, {"measurement": "IC50", "setting": "Neutrophil elastase", "value": 21000, "unit": "nM"}, {"measurement": "concentration at 1 h", "setting": "[37]", "value": 204, "unit": "µM"}]}]}
